Experiments:
cancer = test: Growth of cancer in treated cancer patients (summary of empirical findings); format: in vivo, human; details: Cytomel at 5-40 μg/day
Text: (§1) These clinical findings correlated with the subject being at a state of moderate hypothyroidism, as indicated by the low levels (below normal) of T4 in the subject's blood and above normal values of TSH; • combined treatment of cancer subjects with an anti-thyroid agent, such as methimazole or PTU, in combination with Cytomel®, slowed tumor growth and/or enhanced sensitivity of the tumor cells to chemotherapy and/or radiation therapy.

[1] = T4 / FT4 levels in treated cancer patients (summary of empirical findings); format: in vivo, human; details: Cytomel at 5-40 μg/day
Text: as §1

[2] = Free T4 / TSH monitoring under hypothyroid induction therapy, glioblastoma subject (Example 1); format: in vivo, human; details: Example 1 GBM subject; PTU 600 mg/day in parallel with temozolomide; after about 12 weeks of treatment
Experimental: Shortly thereafter carboplatin treatment (7 mg/kg) was initiated along with continuation of the thyroid reduction therapy, using 600 mg/day PTU.
In order to achieve hypothyroxinemia, in addition to PTU, 5 μg of triiodotionine (T3) was added 3 times a day in order to inhibit TSH and reduce thyroxine level.

[3] = test system: grade IV glioblastoma (GBM); test: Brain MRI tumor response, glioblastoma subject (Example 1); format: in vivo, human; details: Example 1, tumor recurrence about two years later; regimen as labelled
[4] = Free T4 level, subject with malignant fibrous histiocytoma (Example 2); format: in vivo, human; details: methimazole 40 mg/day with palliative radiation (46Gy), after 2 months
Experimental: The subject was maintained on Cytomel® 5 μg, three times a day and methimazole (reduced to 30 mg once a day).

[5] = test system: malignant fibrous histiocytoma (MFH) of the left pulmonary vein; test: Tumor size / mass, subject with malignant fibrous histiocytoma (Example 2); details: methimazole 40 mg/day with palliative radiation (46Gy), after 2 months

Question: With N[C@@H](Cc1cc(I)c(Oc2ccc(O)c(I)c2)c(I)c1)C(=O)O [Cytomel®, Liothyronine sodium] as the compound, how does the “growth of the cancer” value (cancer) read?
Answer: slows the growth of the cancer

Question: And the T4 levels [1]?
Answer: decrease in T4 levels

Question: Which T4 levels [2] does the source give for CCCc1cc(=O)[nH]c(=S)[nH]1 [PTU, propylthiouracil] here?
Answer: slightly reduced

Question: With N.N.O=C([O-])C1(C(=O)[O-])CCC1.[Pt+2] [carboplatin] as the compound, how does the “tumor response on MRI at recurrence” value [3] read?
Answer: no response

Question: Which results are given for Cn1cc[nH]c1=S [methimazole]?
Answer: free T4 level [4]: no change; tumor size [5]: no change

From patent US10398789B2, “Methods, compositions and kits for providing a therapeutic treatment” (priority 2010, dated 2019)
